Reference: ChEMBL document CHEMBL6071200, “Discovery of Ring-Annulated Analogues of Cannabidiol as Potential Anticancer Agents: Synthesis and Biological Evaluation” (ACS Med Chem Lett, 2024)
In brackets after ≈: the same amount, converted by molar mass. Activity calls are given as the source filed them. No cut-off for these calls is given here.

Columns and labels:
[1] = Metabolic stability in human liver microsomes assessed as intrinsic clearance at 5 uM measured upto 30 mins per mg protein in presence of NADPH by LC-MS/MS analysis; type: ADME, Microsome; settings: read-out: CLH
[2] = Metabolic stability in human liver assessed as intrinsic clearance at 5 uM measured upto 30 mins in presence of NADPH by LC-MS/MS analysis; type: ADME, tissue-based; settings: read-out: CLH
[3] = Selectivity index, ratio of IC50 for HEK293 cells to IC50 for human HCT-116 cells; type: toxicity; settings: HEK293 cells versus HCT-116 cells, read-out: Ratio IC50
[4] = Metabolic stability in mouse liver microsomes assessed as intrinsic clearance at 5 uM measured upto 30 mins per mg protein in presence of NADPH by LC-MS/MS analysis; type: ADME, Microsome; settings: read-out: CLH
[5] = Metabolic stability in mouse liver assessed as intrinsic clearance at 5 uM measured upto 30 mins in presence of NADPH by LC-MS/MS analysis; type: ADME, tissue-based; settings: read-out: CLH
HCT-116 [6] = test: Cytotoxicity against human HCT-116 cells assessed as inhibition of cell growth at 20 uM incubated for 48 hrs by SRB assay relative to control; type: functional
MCF7 [7] = test: Cytotoxicity against human MCF7 cells assessed as inhibition of cell growth at 20 uM incubated for 48 hrs by SRB assay relative to control; type: functional
MCF7 [8] = test: Anticancer activity against human MCF7 cells assessed as inhibition of cell growth at 4.4 uM preincubated with capsazepine for 1 hrs followed by compound addition and measured after 48 hrs by SRB assay; type: functional, cell-based
MCF7 [9] = test: Anticancer activity against human MCF7 cells assessed as inhibition of cell growth at 4.4 uM preincubated with GW9662 for 1 hrs followed by compound addition and measured after 48 hrs by SRB assay; type: functional, cell-based
MCF7 [10] = test: Induction of apoptosis in human MCF7 cells assessed as necrotic cells at 4.4 uM incubated for 24 hrs by Annexin V-FITC/PI staining based flow cytometric analysis (reference value: 4.02 %); type: functional
MCF7 [11] = test: Anticancer activity against human MCF7 cells assessed as reduction in cell viability at 4.4 uM incubated for 48 hrs by SRB assay relative to control; type: functional
MCF7 [12] = test: Induction of apoptosis in human MCF7 cells assessed as late apoptotic cells at 4.4 uM incubated for 24 hrs by Annexin V-FITC/PI staining based flow cytometric analysis (reference value: 4.85 %); type: functional
MCF7 [13] = test: Cytotoxicity against human MCF7 cells assessed as inhibition of cell growth incubated for 48 hrs by SRB assay; type: functional, cell-based; settings: MCF7, 48 h
MCF7 [14] = test: Anticancer activity against human MCF7 cells assessed as inhibition of cell growth at 4.4 uM preincubated with ML-193 for 1 hrs followed by compound addition and measured after 48 hrs by SRB assay; type: functional, cell-based
[15] = Permeability of compound at 100 uM incubated for 16 hrs by PAMPA-BBB assay; type: ADME
MCF7 [16] = test: Cell cycle arrest in human MCF7 cells assessed as accumulation of cells at G1 phase at 4.4 uM incubated for 24 hrs by PI staining based flow cytometric analysis (reference value: 63.9 %); type: functional
[17] = Metabolic stability in mouse liver microsomes assessed as half-life at 5 uM measured upto 30 mins in presence of NADPH by LC-MS/MS analysis; type: ADME, Microsome
Cytochrome P450 1A2 = Cytochrome P450 1A2 (Homo sapiens, UniProt P05177); test: Inhibition of CYP1A2 in human liver microsomes using […] substrate at 1 to 10 uM in presence of NADPH by LC-MS/MS analysis; type: ADME, Microsome; settings: dose 1-10 µM
[18] = Cytotoxicity against human HEK293 cells assessed as inhibition of cell growth incubated for 48 hrs by SRB assay; type: toxicity, cell-based
MCF7 [19] = test: Anticancer activity against human MCF7 cells assessed as inhibition of cell growth at 4.4 uM preincubated with SR144528 for 1 hrs followed by compound addition and measured after 48 hrs by SRB assay relative to control; type: functional
MCF7 [20] = test: Cell cycle arrest in human MCF7 cells assessed as accumulation of cells at S phase at 4.4 uM incubated for 24 hrs by PI staining based flow cytometric analysis (reference value: 22.93 %); type: functional
MCF7 [21] = test: Anticancer activity against human MCF7 cells assessed as inhibition of cell growth at 4.4 uM preincubated with LY320135 for 1 hrs followed by compound addition and measured after 48 hrs by SRB assay; type: functional, cell-based
MCF7 [22] = test: Inhibition of colony formation in human MCF7 cells assessed as reduction in number of colonies at subtoxic doses measured after 48 hrs by crystal violet staining based analysis; type: functional, cell-based
MCF7 [23] = test: Induction of apoptosis in human MCF7 cells assessed as early apoptotic cells at 4.4 uM incubated for 24 hrs by Annexin V-FITC/PI staining based flow cytometric analysis (reference value: 2.93 %); type: functional
[24] = Solubility of compound in water by UV absorbance based analysis; type: physicochemical
HCT-116 [25] = test: Cytotoxicity against human HCT-116 cells assessed as inhibition of cell growth incubated for 48 hrs by SRB assay; type: functional, cell-based; settings: HCT-116, 48 h
[26] = Selectivity index, ratio of IC50 for HEK293 cells to IC50 for human MCF7 cells; type: toxicity; settings: HEK293 cells versus MCF7 cells, read-out: Ratio IC50
MCF7 [27] = test: Cell cycle arrest in human MCF7 cells assessed as accumulation of cells at G2/M phase at 4.4 uM incubated for 24 hrs by PI staining based flow cytometric analysis (reference value: 13.7 %); type: functional
[28] = Metabolic stability in mouse liver microsomes assessed as hepatic extraction ratio at 5 uM measured upto 30 mins in presence of NADPH by LC-MS/MS analysis; type: ADME, Microsome; settings: read-out: ERH
[29] = Solubility of compound in SGF by UV absorbance based analysis; type: physicochemical
MCF7 [30] = test: Induction of mitochondrial membrane loss in human MCF7 cells assessed as fold change at 4.4 uM incubated for 24 hrs by Mitotracker dye based flow cytometric analysis relative to control; type: functional
MCF7 [31] = test: Induction of apoptosis in human MCF7 cells assessed as viable cells at 4.4 uM incubated for 24 hrs by Annexin V-FITC/PI staining based flow cytometric analysis (reference value: 88.20 %); type: functional; settings: read-out: Activity
[32] = Metabolic stability in human liver microsomes assessed as hepatic extraction ratio at 5 uM measured upto 30 mins in presence of NADPH by LC-MS/MS analysis; type: ADME, Microsome; settings: read-out: ERH
[33] = Metabolic stability in human liver microsomes assessed as half-life at 5 uM measured upto 30 mins in presence of NADPH by LC-MS/MS analysis; type: ADME, Microsome
[34] = Solubility of compound in SIF by UV absorbance based analysis; type: physicochemical
Cytochrome P450 2C19 = Cytochrome P450 2C19 (Homo sapiens, UniProt P33261); test: Inhibition of CYP2C19 in human liver microsomes using S-mephenytoin substrate at 1 to 10 uM in presence of NADPH by LC-MS/MS analysis; type: ADME, Microsome; settings: dose 1-10 µM
MCF7 [35] = test: Induction of ROS production in human MCF7 cells assessed as DCFDA intensity at 4.4 uM incubated for 24 hrs by flow cytometric analysis (reference value: 0.95 %); type: functional

Cytochrome P450 1A2, sequence (P05177 whole entry): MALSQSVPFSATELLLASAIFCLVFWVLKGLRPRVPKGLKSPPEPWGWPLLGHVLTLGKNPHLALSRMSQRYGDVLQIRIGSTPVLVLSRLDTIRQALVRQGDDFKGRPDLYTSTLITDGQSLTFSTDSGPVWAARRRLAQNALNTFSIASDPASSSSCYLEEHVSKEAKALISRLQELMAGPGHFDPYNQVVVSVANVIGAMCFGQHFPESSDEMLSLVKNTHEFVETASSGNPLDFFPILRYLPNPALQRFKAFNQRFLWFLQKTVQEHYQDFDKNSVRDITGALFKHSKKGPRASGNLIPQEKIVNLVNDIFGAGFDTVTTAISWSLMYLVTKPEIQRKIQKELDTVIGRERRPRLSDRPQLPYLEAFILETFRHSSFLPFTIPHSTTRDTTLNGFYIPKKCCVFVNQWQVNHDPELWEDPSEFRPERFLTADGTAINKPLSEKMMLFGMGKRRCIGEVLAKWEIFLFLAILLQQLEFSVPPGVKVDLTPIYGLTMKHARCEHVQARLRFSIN
Cytochrome P450 2C19, sequence (P33261 whole entry): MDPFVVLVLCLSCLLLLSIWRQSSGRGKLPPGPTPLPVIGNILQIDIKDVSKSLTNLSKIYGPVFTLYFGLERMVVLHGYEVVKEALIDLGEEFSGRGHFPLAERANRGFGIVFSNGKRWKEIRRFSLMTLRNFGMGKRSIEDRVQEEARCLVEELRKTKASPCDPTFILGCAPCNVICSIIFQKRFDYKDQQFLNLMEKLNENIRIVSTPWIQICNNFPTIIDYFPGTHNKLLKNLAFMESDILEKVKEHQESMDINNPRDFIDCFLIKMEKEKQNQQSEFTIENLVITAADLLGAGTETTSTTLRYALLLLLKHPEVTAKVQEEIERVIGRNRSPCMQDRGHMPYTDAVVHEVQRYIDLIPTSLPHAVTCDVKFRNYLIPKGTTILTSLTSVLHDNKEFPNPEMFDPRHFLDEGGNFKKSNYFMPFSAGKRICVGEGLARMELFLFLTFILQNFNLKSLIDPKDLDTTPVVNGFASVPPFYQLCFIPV

`C=C(C)[C@@H]1CCC(C)=C[C@H]1c1c(O)cc(CCCCC)c2c1OCN(C1CCC1)C2` showed a microsomal CLint at 5 µM [1] of 77 µL/min/mg, a CLint scaled at 5 µM [2] of 90 mL/min/kg and a selectivity ratio [3] of 3.2. It also gave a microsomal CLint at 5 µM [4] of 146 µL/min/mg, a CLint scaled at 5 µM [5] of 580 mL/min/kg and an inhibition at 20 µM (HCT-116 [6]) of 63.4%. The inhibition at 20 µM (MCF7 [7]) was 84.9%, the Activity (MCF7 [8]) was “Active” and the Activity (MCF7 [9]) was “Active”. For the same molecule, the Activity (MCF7 [10]) was 6.2%, the Activity (MCF7 [11]) was 48.65% and the Activity (MCF7 [12]) was 18.39%. For the same molecule, the IC50 (MCF7 [13]) was 4.4 µM, the Activity (MCF7 [14]) was “Active” and the permeability [15] was “Impermeable”. For the same molecule, the Activity (MCF7 [16]) was 73.84%, the half-life at 5 µM [17] was 10 min and the “inhibition (INH)” value (Cytochrome P450 1A2) was “Active”. It also gave an IC50 at 48 h [18] of 28.1 µM, an inhibition at 4.4 µM (MCF7 [19]) of about 17% and an Activity (MCF7 [20]) of 15.74%. For the same molecule, the Activity (MCF7 [21]) was “Active”, the inhibition (MCF7 [22]) was “Active” and the Activity (MCF7 [23]) was 7.61%. The solubility [24] was 40 µg/mL (≈ 97.7 µM), the IC50 (HCT-116 [25]) was 8.6 µM and the selectivity ratio [26] was 6.4. The Activity (MCF7 [27]) was 10.42%, the hepatic extraction ratio at 0.5 h, 5 µM [28] was 0.87 and the solubility [29] was over 1500 µg/mL. For the same molecule, the “fold change (FC)” value (MCF7 [30]) was 5, the viability at 4.4 µM (MCF7 [31]) was 67.8% and the hepatic extraction ratio at 0.5 h, 5 µM [32] was 0.81. For the same molecule, the half-life at 5 µM [33] was 18 min, the solubility [34] was over 1500 µg/mL and the “inhibition (INH)” value (Cytochrome P450 2C19) was “Active”. For the same molecule, the Activity (MCF7 [35]) was 17.87%.
